Laboratory results as given in patent US9199946B2, “Pyrimidinone carboxamide inhibitors of endothelial lipase” (BRISTOL-MYERS SQUIBB COMPANY, priority 2012, dated 2015).
Where two headings read alike, the source gives them in different places.

Molecular target: T1, Endothelial lipase (EL) (Homo sapiens, UniProt Q9Y5X9)
T1 construct: HT-1080 cells, which were transformed by RAGE technology (Athersys) to overexpress endogenous EL; endogenous in cells; conditioned medium used as the enzyme source
T1 sequence (Q9Y5X9 21-500): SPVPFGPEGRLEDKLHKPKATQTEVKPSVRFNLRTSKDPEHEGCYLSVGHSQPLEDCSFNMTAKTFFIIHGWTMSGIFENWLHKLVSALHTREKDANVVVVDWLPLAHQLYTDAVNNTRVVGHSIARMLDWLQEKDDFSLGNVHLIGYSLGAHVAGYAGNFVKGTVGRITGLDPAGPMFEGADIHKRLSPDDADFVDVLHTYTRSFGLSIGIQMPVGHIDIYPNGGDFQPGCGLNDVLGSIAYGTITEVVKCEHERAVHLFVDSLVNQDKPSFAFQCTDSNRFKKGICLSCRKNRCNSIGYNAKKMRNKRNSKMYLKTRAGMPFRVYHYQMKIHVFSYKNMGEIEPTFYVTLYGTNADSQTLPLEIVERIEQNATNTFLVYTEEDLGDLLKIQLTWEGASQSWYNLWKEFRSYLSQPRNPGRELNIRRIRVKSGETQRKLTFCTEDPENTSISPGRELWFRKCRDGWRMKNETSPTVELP
Test: Endothelial lipase (EL) enzymatic assay with fluorescent substrate A10070 in DMPG vesicles
Format: biochemical
How it was run: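 The enzyme source was conditioned medium from HT-1080 cells engineered to overexpress endogenous EL. It was preincubated with compound for 20 min at 37 °C in 50 mM HEPES pH 8.0, 50 mM NaCl, 1 mM CaCl2. Reactions started with DMPG vesicles carrying FRET substrate A10070 (mole fraction 0.05). The rate was taken from the linear slope of fluorescence (ex 488/em 530 nm) over 10 min.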

[1] = range observed in the EL assay, read-out: EL IC50 values
[2] = conditioned media from HT-1080 cells overexpressing endogenous EL, 20 min preincubation at 37° C., read-out: EL IC50

Structure (SMILES) | IC50 [1] | IC50 [2]
Nc1c(C(=O)N[C@@H]2CCCc3c(Nc4ccccc4)cccc32)[nH]c(=O)[nH]c1=O [Example 126, (R)-5-amino-2,6-dioxo-N-(5-(phenylamino)-1,2,3,4-tetrahydronaphthalen-1-yl)-1,2,3,6-tetrahydropyrimidine-4-carboxamide] | ≤ 10 µM | –
Nc1c(C(=O)N[C@H]2C[C@@H](c3ccccc3)c3ccccc32)[nH]c(=O)[nH]c1=O [Example 28, 5-amino-2,6-dioxo-N-((1S,3S)-3-phenyl-2,3-dihydro-1H-inden-1-yl)-1,2,3,6-tetrahydropyrimidine-4-carboxamide] | ≤ 10 µM | –
O=C(N[C@H]1CCCc2c1cccc2C(F)(F)F)c1[nH]c(=O)[nH]c(=O)c1O [Example 266, (S)-5-hydroxy-2,6-dioxo-N-(5-(trifluoromethyl)-1,2,3,4-tetrahydronaphthalen-1-yl)-1,2,3,6-tetrahydropyrimidine-4-carboxamide] | ≤ 10 µM | –
Nc1c(C(=O)N[C@@H]2CCCc3c(OCc4ccccc4F)cccc32)[nH]c(=O)[nH]c1=O [Example 96, (R)-5-amino-N-(5-(2-fluorobenzyloxy)-1,2,3,4-tetrahydronaphthalen-1-yl)-2,6-dioxo-1,2,3,6-tetrahydropyrimidine-4-carboxamide] | ≤ 10 µM | –
Nc1c(C(=O)N[C@H]2C[C@@H](c3ccccc3)c3ccccc32)[nH]c(=O)[nH]c1=O (racemic) [Example 18, 5-amino-2,6-dioxo-N-(cis-3-phenyl-2,3-dihydro-1H-inden-1-yl)-1,2,3,6-tetrahydropyrimidine-4-carboxamide] | ≤ 10 µM | –
CN1CCC(Nc2c(C(=O)N[C@H]3CC[C@@H](c4ccccc4)CC3)[nH]c(=O)[nH]c2=O)CC1 [Example 230, 5-(1-methylpiperidin-4-ylamino)-2,6-dioxo-N-(cis-4-phenylcyclohexyl)-1,2,3,6-tetrahydropyrimidine-4-carboxamide] | ≤ 10 µM | –
COc1ccccc1C1CCC(NC(=O)c2[nH]c(=O)[nH]c(=O)c2O)C1 (stereo not drawn) [Example 292, 5-hydroxy-N-(3-(2-methoxyphenyl)cyclopentyl)-2,6-dioxo-1,2,3,6-tetrahydropyrimidine-4 carboxamide] | ≤ 10 µM | –
Nc1c(C(=O)N[C@@H]2CCc3ccc(C(F)(F)F)cc32)[nH]c(=O)[nH]c1=O [Example 1, (R)-5-Amino-2,6-dioxo-N-(6-(trifluoromethyl)-2,3-dihydro-1H-inden-1-yl)-1,2,3,6-tetrahydropyrimidine-4-carboxamide] | ≤ 10 µM | –
O=C(N[C@H]1CC[C@@H](c2ccccc2)CC1)c1[nH]c(=O)[nH]c(=O)c1NCCc1ccc(Cl)cc1 [Example 218, 5-(4-chlorophenethylamino)-2,6-dioxo-N-(cis-4-phenylcyclohexyl)-1,2,3,6-tetrahydropyrimidine-4-carboxamide] | ≤ 10 µM | 0.296 µM
NC(=O)c1ccccc1-c1ccc([C@@H]2CC[C@H](NC(=O)c3[nH]c(=O)[nH]c(=O)c3N)C2)cc1 [Example 180, 5-amino-N-((1S,3R)-3-(2′-carbamoyl-[1,1′-biphenyl]-4-yl)cyclopentyl)-2,6-dioxo-1,2,3,6-tetrahydropyrimidine-4-carboxamide] | ≤ 10 µM | 0.141 µM
Nc1c(C(=O)N[C@@H]2CCCc3cc(Oc4ccccc4)ccc32)[nH]c(=O)[nH]c1=O [Example 85, (R)-5-amino-2,6-dioxo-N-(6-phenoxy-1,2,3,4-tetrahydronaphthalen-1-yl)-1,2,3,6-tetrahydropyrimidine-4-carboxamide] | ≤ 10 µM | –
O=C(N[C@@H]1CCCc2c(OCC(F)(F)F)cccc21)c1[nH]c(=O)[nH]c(=O)c1O [Example 255, (R)-5-hydroxy-2,6-dioxo-N-(5-(2,2,2-trifluoroethoxy)-1,2,3,4-tetrahydronaphthalen-1-yl)-1,2,3,6-tetrahydropyrimidine-4-carboxamide] | ≤ 10 µM | –
Nc1c(C(=O)N[C@H]2CCCc3ccc(F)cc32)[nH]c(=O)[nH]c1=O [Example 41, (S)-5-amino-N-(7-fluoro-1,2,3,4-tetrahydronaphthalen-1-yl)-2,6-dioxo-1,2,3,6-tetrahydropyrimidine-4-carboxamide] | ≤ 10 µM | –
Nc1c(C(=O)N[C@H]2CC[C@@H](c3ccccc3)CC2)n(-c2cc(F)cc(C(F)(F)F)c2)c(=O)[nH]c1=O [Example 203, 5-Amino-3-(3-fluoro-5-(trifluoromethyl)phenyl)-2,6-dioxo-N-(cis-4-phenylcyclohexyl)-1,2,3,6-tetrahydropyrimidine-4-carboxamide] | ≤ 10 µM | 6.22 µM
Nc1c(C(=O)N[C@@H]2CCc3c(OCc4ccccc4)cccc32)[nH]c(=O)[nH]c1=O [Example 86, (R)-5-ammo-N-(4-(benzyloxy)-2,3-dihydro-1H-inden-1-yl)-2,6-dioxo-1,2,3,6-tetrahydropyrimidine-4-carboxamide] | ≤ 10 µM | –

Second part, the compound after the results:

IC50 [1] | IC50 [2] | Structure (SMILES)
≤ 10 µM | – | Nc1c(C(=O)N[C@@H]2CCCc3cc(OCc4ccccc4)ccc32)[nH]c(=O)[nH]c1=O [Example 83, (R)-5-amino-N-(6-(benzyloxy)-1,2,3,4-tetrahydronaphthalen-1-yl)-2,6-dioxo-1,2,3,6-tetrahydropyrimidine-4-carboxamide]
≤ 10 µM | – | Nc1c(C(=O)N[C@@H]2CC[C@@H](C(=O)N[C@H]3CC[C@@H](c4cccc(C(F)(F)F)c4)CC3)C2)[nH]c(=O)[nH]c1=O [Example 150, 5-amino-2,6-dioxo-N-((1R,3R)-3-(cis-4-(3-(trifluoromethyl)phenyl)cyclohexylcarbamoyl)cyclopentyl)-1,2,3,6-tetrahydropyrimidine-4-carboxamide]
≤ 10 µM | – | CCOC(=O)N1CCC(NC(=O)c2[nH]c(=O)[nH]c(=O)c2N)c2ccccc21 (single isomer, unassigned; enantiomer b) [Example 193, Ethyl 4-(5-amino-2,6-dioxo-1,2,3,6-tetrahydropyrimidine-4-carboxamido)-3,4-dihydroquinoline-1(2H)-carboxylate (Enantiomer B)]
≤ 10 µM | – | CCOc1cccc(C(=O)N[C@H]2CC[C@@H](NC(=O)c3[nH]c(=O)[nH]c(=O)c3N)CC2)c1 [Example 121, 5-amino-N-(cis-4-(3-ethoxybenzamido)cyclohexyl)-2,6-dioxo-1,2,3,6-tetrahydropyrimidine-4-carboxamide]
≤ 10 µM | – | CCOC(=O)Cn1cc(-c2ccc([C@@H]3CC[C@H](NC(=O)c4[nH]c(=O)[nH]c(=O)c4N)C3)cc2)cn1 [Example 160, ethyl 2-(4-(4-((1R,3S)-3-(5-amino 2,6-dioxo-1,2,3,6-tetrahydropyrimidine-4-carboxamido)cyclopentyl)phenyl) 1H-pyrazol-1-yl)acetate]
≤ 10 µM | 3.14 µM | O=C(Nc1ccccc1)N[C@H]1CC[C@@H](NC(=O)c2[nH]c(=O)[nH]c(=O)c2O)CC1 [Example 280, 5-hydroxy-2,6-dioxo-N-(cis-4-(3-phenylureido)cyclohexyl)-1,2,3,6-tetrahydropyrimidine-4-carboxamide]
≤ 10 µM | 0.447 µM | Nc1c(C(=O)N[C@H]2CC[C@@H](c3nc(-c4ccc(Cl)c(Cl)c4)no3)CC2)[nH]c(=O)[nH]c1=O [Example 48, 5-amino-N-(cis-4-(3-(3,4-dichlorophenyl)-1,2,4-oxadiazol-5-yl)cyclohexyl)-2,6-dioxo-1,2,3,6-tetrahydropyrimidine-4-carboxamide]
